The record followed here is US7351737B2, “4-[(8-substituted)-6-chromanoyl]-and 4-[8-substituted)-chroman-6-YL-ethynyl]-benzoic and phenylacetic acids, their esters and salts having cytochrome P450RAI inhibitory activity” (Allergan, Inc., priority 2002, dated 2008).

Structures are written as SMILES. pIC50, pKd: −log10 of the molar value.

One assay concerns the target T1, P450RAI-1 (Homo sapiens, UniProt O43174).
T1 construct: expressed in transfected cells; host or cells: HeLa
T1 sequence (O43174 1-497): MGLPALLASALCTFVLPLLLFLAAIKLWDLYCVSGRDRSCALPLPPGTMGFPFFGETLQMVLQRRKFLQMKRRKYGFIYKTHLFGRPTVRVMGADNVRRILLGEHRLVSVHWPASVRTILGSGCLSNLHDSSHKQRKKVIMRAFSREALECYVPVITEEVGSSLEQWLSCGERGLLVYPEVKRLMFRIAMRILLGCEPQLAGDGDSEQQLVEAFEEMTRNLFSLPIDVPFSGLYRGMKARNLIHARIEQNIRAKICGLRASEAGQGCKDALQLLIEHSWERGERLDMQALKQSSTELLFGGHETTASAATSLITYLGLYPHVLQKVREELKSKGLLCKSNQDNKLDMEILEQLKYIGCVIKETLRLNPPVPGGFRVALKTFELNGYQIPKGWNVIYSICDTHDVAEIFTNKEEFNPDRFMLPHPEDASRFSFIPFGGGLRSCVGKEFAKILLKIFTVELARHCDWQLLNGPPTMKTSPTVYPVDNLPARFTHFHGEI
Briefly: P450RAI-1 cell-based inhibitor assay ([3H]-RA metabolism, intact cells). To be noted: P450RAI-1 stably transfected HeLa cells, 3 hours at 37° C., all-trans-RA metabolism; read-out: P450RAI INHIBITION DATA RAI-1 Intact cells IC50. On the procedure:
FIG. 1 is a schematic representation of the P450RAI cell based assay utilized to evaluate the ability of the compounds of the invention to inhibit the Cytochrome P450RAI enzyme.
P450RAI-1 and P450RAI-2 Cell-Based Inhibitor Assay:
P450RAI-1 stably transfected HeLa cells, or P450RAI-2 stably transfected HeLa cells, as applicable, are maintained in […] tissue culture dishes in Modified Eagle's Medium (MEM) containing 10% Fetal Bovine Serum (FBS) and 100 μg/ml hygromycin. Exponentially growing cells are harvested by incubating in trypsin. Cells are then washed with 1X Phosphate Buffered Saline (PBS) and plated in a 48-well plate at 5×10^5 cells in 0.2 ml MEM medium containing 10% FBS and 0.05 μCi [^3H]-RA in the presence or absence of increasing concentrations of the test compounds. The compounds are diluted in 100% DMSO and then added in triplicate wells at either 10, 1 or 0.1 μM final concentration. As a positive control for RA metabolism inhibition, cells are also incubated with ketoconazole at 100, 10 and 1 μM. Cells are incubated for 3 hours at 37° C. The retinoids are then extracted using the procedure of Bligh et al. (1959) Canadian Journal of Biochemistry 37, 911-917, modified by using methylenechloride instead of chloroform. The publication Bligh et al. (1959) Canadian Journal of Biochemistry 37, 911-917 is specifically incorporated herein by reference. The water soluble radioactivity is quantified using a β-scintillation counter. IC50 values represent the concentration of inhibitor required to inhibit all-trans-RA metabolism by 50 percent and are derived manually from log-transformed data.

For another assay, the target named is T2, RARγ (Homo sapiens, UniProt P13631).
T2 sequence (P13631 1-454): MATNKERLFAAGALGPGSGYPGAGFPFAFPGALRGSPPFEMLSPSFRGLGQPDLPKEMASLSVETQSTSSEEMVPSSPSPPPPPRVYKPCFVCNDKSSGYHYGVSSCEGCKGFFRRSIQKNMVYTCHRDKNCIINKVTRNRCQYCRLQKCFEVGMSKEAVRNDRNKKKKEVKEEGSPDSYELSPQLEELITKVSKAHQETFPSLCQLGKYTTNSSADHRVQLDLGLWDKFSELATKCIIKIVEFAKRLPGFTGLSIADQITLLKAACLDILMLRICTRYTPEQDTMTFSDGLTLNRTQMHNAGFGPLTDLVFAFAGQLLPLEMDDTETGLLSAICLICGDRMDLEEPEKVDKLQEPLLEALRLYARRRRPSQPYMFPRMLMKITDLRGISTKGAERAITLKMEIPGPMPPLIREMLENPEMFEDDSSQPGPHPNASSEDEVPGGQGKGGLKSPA
As to the kind of experiment: ligand binding assay, RARγ. To be noted: last item of cell, read-out: RAR γ Kd. From the text: (§1) Assays described below measure the ability of a compound to bind to, and/or activate various retinoid receptor subtypes. When in these assays a compound binds to a given receptor subtype and activates the transcription of a reporter gene through that subtype, then the compound is considered an agonist of that receptor subtype. […] In the below described assays the ability of the compounds to bind to RARα, RARβ, RARγ, RXRα, RXRβ and RXRγ receptors, and the ability or inability of the compounds to activate transcription of a reporter gene through these receptor subtypes can be tested.
(§2) A holoreceptor transactivation assay and a ligand binding assay which measure the antagonist/agonist like activity of the compounds of the invention, or their ability to bind to the several retinoid receptor subtypes, respectively, are described in published PCT Application No. WO WO93/11755 (particularly on pages 30-33 and 37-41) published on Jun. 24, 1993, the specification of which is also incorporated herein by reference. A detailed experimental procedure for holoreceptor transactivations has been described by Heyman et al. Cell 68, 397-406, (1992); Allegretto et al. J. Biol. Chem. 268, 26625-26633, and Mangelsdorf et al. The Retinoids: Biology, Chemistry and Medicine, pp 319-349, Raven Press Ltd., New York, which are expressly incorporated herein by reference. The results obtained in this assay are expressed in EC50 numbers, as they are also in the chimeric receptor transactivation assay. The results of ligand binding assay are expressed in Kd numbers. (See Cheng et al. Biochemical Pharmacology Vol. 22 pp 3099-3108, expressly incorporated herein by reference.)
(§3) The results of the ligand binding assay for several preferred compounds of the invention are included in Table 1.

The target of another assay is T3, RARβ (Homo sapiens, UniProt P10826).
T3 sequence (P10826 1-455): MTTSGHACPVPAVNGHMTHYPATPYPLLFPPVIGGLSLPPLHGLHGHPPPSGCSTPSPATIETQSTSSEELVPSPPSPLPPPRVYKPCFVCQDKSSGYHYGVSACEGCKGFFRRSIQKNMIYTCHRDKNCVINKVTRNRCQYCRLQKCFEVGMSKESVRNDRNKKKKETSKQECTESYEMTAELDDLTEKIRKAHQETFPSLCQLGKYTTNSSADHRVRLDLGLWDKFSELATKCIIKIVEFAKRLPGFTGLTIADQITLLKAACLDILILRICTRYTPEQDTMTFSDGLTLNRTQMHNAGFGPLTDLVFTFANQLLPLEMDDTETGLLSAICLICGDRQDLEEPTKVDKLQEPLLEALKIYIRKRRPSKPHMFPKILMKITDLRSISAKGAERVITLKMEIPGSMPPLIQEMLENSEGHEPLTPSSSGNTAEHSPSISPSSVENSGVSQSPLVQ
Briefly: ligand binding assay, RARβ. As to conditions: last item of cell, read-out: RAR β Kd.
From the text: as §1, §2, §3

For the compound `CC1(C)CC(C)(C)c2cc(C(=O)Oc3ccc(CC(=O)O)c(F)c3)cc(C#N)c2O1` [Compound 32, 8-Cyano-2,2,4,4-tetramethyl-chroman-6-carboxylic acid-4-carboxymethyl-3-fluoro-phenyl ester], the pIC50 at P450RAI-1 was 7.00. In addition, the pKd at RARγ and on RARβ was below 5.00 throughout.
Consider `C#Cc1cc(C(=O)Oc2ccc(CC(=O)O)cc2)cc2c1OC(C)(C)CC2(C)C` [Compound 1, 8-Ethynyl-2,2,4,4-tetramethyl-chroman-6-carboxylic acid 4-carboxymethyl-phenyl ester], for which the pIC50 on P450RAI-1 was 6.30. Further, the pKd on RARγ and at RARβ was below 5.00 throughout.
On to `C#Cc1cc(C(=O)Oc2ccc(CC(=O)OCOC(C)=O)c(F)c2)cc2c1OC(C)(C)CC2(C)C` [Compound 5, 8-Ethynyl-2,2,4,4-tetramethyl-chroman-6-carboxylic acid 4-acetoxymethoxycarbonylmethyl-3-fluoro-phenyl ester], for which the negative logarithm of the IC50 (pIC50) on P450RAI-1 is 7.12. Besides, the figures for the pKd on RARγ and at RARβ were below 5.00 and 5.26, respectively.
As to `C#CCc1cc(C#Cc2ccc(CC(=O)O)cc2)cc2c1OC(C)(C)CC2(C)C` [Compound 49], the pIC50 at P450RAI-1 was 7.74. For the same compound, the results for the pKd on RARγ and at RARβ were 5.08 and below 5.00, respectively.
As for `C#Cc1cc(C#Cc2ccc(CC(=O)O)c(F)c2)cc2c1OC(C)(C)CC2(C)C` [Compound 41, [4-(8-Ethynyl-2,2,4,4-tetramethyl-chroman-6-ylethynyl)-2-fluoro-phenyl]-acetic acid], the negative logarithm of the IC50 (pIC50) on P450RAI-1 is 8.40. Also, the pKd was below 5.00 at RARγ and 5.31 on RARβ.
Consider `C#Cc1cc(C(=O)Oc2ccc(CC(=O)OCOC(C)=O)cc2)cc2c1OC(C)(C)CC2(C)C` [Compound 3, 8-Ethynyl-2,2,4,4-tetramethyl-chroman-6-carboxylic acid 4-acetoxymethoxycarbonylmethyl-phenyl ester], for which the pIC50 at P450RAI-1 is 6.30. In addition, the pKd on RARγ and at RARβ was below 5.00 each time.
For the compound `C#Cc1cc(C(=O)Oc2ccc(CC(=O)OCC)cc2)cc2c1OC(C)(C)CC2(C)C` [Compound 2, 8-Ethynyl-2,2,4,4-tetramethyl-chroman-6-carboxylic acid 4-ethoxycarbonylmethyl-phenyl ester], the pIC50 at P450RAI-1 was 5.22. The pKd on RARγ and at RARβ was below 5.00 each time.
`C#Cc1cc(C#Cc2ccc(CC(=O)O)cc2)cc2c1OC(C)(C)CC2(C)C` [Compound 40, [4-(8-Ethynyl-2,2,4,4-tetramethyl-chroman-6-ylethynyl)-phenyl]-acetic acid]: at P450RAI-1, the pIC50 is 8.00. In addition, the figures for the pKd on RARγ and at RARβ were below 5.00 and 5.12, respectively.
On to `CC(=O)OCOC(=O)Cc1ccc(OC(=O)c2cc(C#N)c3c(c2)C(C)(C)CC(C)(C)O3)cc1F` [Compound 33, 8-Cyano-2,2,4,4-tetramethyl-chroman-6-carboxylic acid 4-acetoxymethoxycarbonylmethyl-3-fluoro-phenyl ester], for which the pIC50 at P450RAI-1 is 7.00. For the same compound, the pKd on RARγ and on RARβ was below 5.00 each time.
With `C#Cc1cc(C(=O)Oc2ccc(CC(=O)O)c(F)c2)cc2c1OC(C)(C)CC2(C)C` [Compound 4, 8-Ethynyl-2,2,4,4-tetramethyl-chroman-6-carboxylic acid-4-carboxymethyl-3-fluoro-phenyl ester], on P450RAI-1, the pIC50 is 7.00. The pKd on RARγ is below 5.00; at RARβ, 5.18.
